Test results reported in ChEMBL document CHEMBL4396887, “Five-Membered N-Heterocyclic Scaffolds as Novel Amino Bioisosteres at γ-Aminobutyric Acid (GABA) Type A Receptors and GABA Transporters” (J Med Chem, 2019).
Active and inactive are the calls of the source. No cut-off for these calls is given here.

Key:
[1] = target: GABA-A receptor; anion channel; assay: Displacement of [3H]muscimol from GABA(A) receptor in Sprague-Dawley rat cortical synaptic membranes by liquid scintillation counting
Homo sapiens = species: Homo sapiens; assay: Agonist activity at recombinant human GABA-A alpha3beta2gamma2S receptor transiently expressed in human tsA201 cells assessed as GABA-induced maximum response incubated for 30 mins and measured up to 90 secs by FMP dye based FLIPR membrane potential blue assay relative to GABA; assay type: cell-based
[2] = target: T1, Gamma-aminobutyric acid receptor subunit alpha-4/beta-2/gamma-2 (Homo sapiens, UniProt P47870+P18507+P48169); assay: Agonist activity at recombinant human GABA-A alpha4beta2gamma2S receptor transiently expressed in human tsA201 cells incubated for 30 mins and measured up to 90 secs by FMP dye based FLIPR membrane potential blue assay; assay type: cell-based
T1 sequence (P47870 whole entry): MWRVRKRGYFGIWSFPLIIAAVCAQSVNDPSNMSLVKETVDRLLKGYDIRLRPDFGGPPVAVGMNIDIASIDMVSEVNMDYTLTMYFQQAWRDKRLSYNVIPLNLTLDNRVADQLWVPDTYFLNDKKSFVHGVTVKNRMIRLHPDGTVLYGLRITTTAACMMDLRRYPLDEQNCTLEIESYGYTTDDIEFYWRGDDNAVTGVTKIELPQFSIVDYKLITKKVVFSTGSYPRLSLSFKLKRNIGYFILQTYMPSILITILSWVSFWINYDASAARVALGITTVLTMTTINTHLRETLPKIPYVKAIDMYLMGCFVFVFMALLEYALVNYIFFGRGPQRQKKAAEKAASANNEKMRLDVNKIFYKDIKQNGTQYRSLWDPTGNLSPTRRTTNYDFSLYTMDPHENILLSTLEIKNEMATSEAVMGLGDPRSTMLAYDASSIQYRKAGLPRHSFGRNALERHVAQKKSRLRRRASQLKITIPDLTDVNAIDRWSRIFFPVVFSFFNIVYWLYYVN
T1 sequence (P18507 whole entry): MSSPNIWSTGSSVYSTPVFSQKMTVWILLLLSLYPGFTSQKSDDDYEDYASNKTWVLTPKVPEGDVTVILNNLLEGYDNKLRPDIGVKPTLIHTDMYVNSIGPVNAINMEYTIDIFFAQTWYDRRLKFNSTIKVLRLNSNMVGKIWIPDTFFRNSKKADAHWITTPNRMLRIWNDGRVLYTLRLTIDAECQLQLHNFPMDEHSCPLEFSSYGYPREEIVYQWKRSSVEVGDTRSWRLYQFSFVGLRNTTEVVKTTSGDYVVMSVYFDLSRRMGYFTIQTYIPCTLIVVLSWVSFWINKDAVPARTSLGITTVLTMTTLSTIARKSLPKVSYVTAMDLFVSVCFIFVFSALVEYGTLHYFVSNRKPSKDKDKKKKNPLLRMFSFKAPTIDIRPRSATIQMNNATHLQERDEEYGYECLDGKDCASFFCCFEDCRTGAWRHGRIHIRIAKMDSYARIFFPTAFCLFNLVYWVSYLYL
T1 sequence (P48169 whole entry): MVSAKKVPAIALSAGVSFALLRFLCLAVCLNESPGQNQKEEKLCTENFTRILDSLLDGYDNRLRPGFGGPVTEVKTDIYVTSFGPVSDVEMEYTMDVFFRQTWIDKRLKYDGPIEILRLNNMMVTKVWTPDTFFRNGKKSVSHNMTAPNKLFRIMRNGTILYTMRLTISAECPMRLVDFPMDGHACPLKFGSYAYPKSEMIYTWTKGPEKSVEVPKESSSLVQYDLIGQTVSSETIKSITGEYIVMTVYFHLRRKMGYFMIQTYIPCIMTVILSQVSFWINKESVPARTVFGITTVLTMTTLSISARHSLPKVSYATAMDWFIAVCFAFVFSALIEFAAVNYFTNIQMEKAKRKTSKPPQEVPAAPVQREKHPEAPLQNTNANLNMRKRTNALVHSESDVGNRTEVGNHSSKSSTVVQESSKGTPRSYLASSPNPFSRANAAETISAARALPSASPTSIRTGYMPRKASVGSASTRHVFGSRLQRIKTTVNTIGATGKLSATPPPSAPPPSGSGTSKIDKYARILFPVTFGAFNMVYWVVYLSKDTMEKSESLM

[3] = target: T1, Gamma-aminobutyric acid receptor subunit alpha-4/beta-2/gamma-2; assay: Agonist activity at recombinant human GABA-A alpha4beta2gamma2S receptor transiently expressed in human tsA201 cells assessed as GABA-induced maximum response incubated for 30 mins and measured up to 90 secs by FMP dye based FLIPR membrane potential blue assay relative to GABA; assay type: cell-based
[4] = target: Sodium- and chloride-dependent GABA transporter 1 (Homo sapiens, UniProt P30531); assay type: cell-based
Chain of Sodium- and chloride-dependent GABA transporter 1 (P30531 whole entry): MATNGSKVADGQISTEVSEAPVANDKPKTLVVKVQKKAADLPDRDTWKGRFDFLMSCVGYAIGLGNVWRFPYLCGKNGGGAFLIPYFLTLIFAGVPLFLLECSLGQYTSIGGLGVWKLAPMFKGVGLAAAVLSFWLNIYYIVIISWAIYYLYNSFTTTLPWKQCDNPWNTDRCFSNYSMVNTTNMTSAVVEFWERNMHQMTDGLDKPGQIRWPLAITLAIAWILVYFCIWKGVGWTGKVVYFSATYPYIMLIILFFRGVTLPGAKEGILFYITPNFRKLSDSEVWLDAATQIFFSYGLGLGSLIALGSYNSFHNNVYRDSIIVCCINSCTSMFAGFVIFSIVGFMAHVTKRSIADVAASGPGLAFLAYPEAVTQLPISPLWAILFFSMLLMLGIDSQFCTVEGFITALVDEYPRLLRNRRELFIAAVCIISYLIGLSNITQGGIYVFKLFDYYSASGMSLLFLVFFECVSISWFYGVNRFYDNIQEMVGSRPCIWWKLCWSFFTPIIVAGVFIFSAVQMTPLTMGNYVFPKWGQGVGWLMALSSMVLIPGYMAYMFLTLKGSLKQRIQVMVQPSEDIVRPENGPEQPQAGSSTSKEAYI

[5] = target: T2, Sodium- and chloride-dependent betaine transporter (Homo sapiens, UniProt P48065); assay: Inhibition of human BGT1 expressed in Flp-In CHO cells assessed as reduction in [3H]GABA uptake incubated for 3 mins by liquid scintillation counting method; assay type: cell-based
T2 sequence (P48065 whole entry): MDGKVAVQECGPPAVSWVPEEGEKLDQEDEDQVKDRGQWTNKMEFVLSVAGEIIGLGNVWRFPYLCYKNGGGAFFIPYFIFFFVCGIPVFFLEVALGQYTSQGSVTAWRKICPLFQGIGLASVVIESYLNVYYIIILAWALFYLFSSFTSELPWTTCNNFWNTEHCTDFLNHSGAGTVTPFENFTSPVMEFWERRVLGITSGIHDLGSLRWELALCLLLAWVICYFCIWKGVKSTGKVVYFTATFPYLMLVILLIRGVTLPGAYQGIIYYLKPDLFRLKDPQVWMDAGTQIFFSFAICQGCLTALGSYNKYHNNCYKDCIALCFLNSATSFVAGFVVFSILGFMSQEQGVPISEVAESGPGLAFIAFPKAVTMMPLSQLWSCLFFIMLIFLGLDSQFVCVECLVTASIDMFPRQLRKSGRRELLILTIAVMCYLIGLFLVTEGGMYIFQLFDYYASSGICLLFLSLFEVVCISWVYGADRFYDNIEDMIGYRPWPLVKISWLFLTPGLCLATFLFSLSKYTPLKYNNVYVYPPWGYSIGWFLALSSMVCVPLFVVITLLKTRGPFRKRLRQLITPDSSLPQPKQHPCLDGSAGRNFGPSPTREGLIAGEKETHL

[6] = target: T3, Sodium- and chloride-dependent GABA transporter 2 (Homo sapiens) (UniProt Q9NSD5); assay: Inhibition of human GAT2 expressed in Flp-In CHO cells assessed as reduction in [3H]GABA uptake at 100 uM incubated for 3 mins by liquid scintillation counting method relative to control; assay type: cell-based
T3 sequence (whole entry): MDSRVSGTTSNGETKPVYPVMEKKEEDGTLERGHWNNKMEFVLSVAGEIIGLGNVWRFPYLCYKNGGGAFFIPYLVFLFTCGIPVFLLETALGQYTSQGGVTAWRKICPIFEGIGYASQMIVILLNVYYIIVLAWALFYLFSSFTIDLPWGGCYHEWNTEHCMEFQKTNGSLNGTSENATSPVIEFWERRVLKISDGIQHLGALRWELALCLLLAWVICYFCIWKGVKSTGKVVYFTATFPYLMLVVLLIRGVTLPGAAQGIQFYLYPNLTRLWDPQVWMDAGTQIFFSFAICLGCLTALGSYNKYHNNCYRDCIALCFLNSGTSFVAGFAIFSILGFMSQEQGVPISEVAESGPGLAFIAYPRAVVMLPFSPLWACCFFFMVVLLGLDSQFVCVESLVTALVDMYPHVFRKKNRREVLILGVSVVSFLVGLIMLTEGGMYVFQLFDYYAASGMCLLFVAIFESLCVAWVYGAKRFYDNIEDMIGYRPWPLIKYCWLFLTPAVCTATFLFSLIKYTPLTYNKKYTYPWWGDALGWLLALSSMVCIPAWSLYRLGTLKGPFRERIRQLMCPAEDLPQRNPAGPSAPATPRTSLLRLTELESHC

[7] = target: T4, Sodium- and chloride-dependent GABA transporter 3 (Homo sapiens) (UniProt P48066); assay: Inhibition of human GAT3 expressed in Flp-In CHO cells assessed as reduction in [3H]GABA uptake at 100 uM incubated for 3 mins by liquid scintillation counting method relative to control; assay type: cell-based
T4 sequence (whole entry): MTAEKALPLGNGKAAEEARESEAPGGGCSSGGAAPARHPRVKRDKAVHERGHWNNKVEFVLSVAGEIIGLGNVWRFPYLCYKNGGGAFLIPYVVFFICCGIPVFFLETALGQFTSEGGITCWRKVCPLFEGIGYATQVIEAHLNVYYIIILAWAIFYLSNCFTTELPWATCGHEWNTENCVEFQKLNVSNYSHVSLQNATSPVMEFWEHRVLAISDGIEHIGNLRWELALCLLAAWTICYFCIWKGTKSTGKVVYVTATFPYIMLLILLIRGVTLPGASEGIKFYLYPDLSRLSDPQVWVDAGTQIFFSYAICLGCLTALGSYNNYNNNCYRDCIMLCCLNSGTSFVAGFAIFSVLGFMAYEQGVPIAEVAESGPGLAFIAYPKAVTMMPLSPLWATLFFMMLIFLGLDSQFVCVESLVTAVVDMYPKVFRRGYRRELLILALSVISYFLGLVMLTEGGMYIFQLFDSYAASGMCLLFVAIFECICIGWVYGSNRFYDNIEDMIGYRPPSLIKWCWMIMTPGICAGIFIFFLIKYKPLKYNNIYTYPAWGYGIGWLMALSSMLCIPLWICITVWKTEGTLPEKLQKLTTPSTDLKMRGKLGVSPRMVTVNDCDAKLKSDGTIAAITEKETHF

O=C(O)C[C@@H]1CCNC1
Ki [1]: 5.6 µM
Rmax (Homo sapiens): inactive
EC50 [2]: Not Active
pEC50 [2]: inactive
Rmax [3]: inactive
IC50 ([4]; read-out: IC50): 3.9 µM
IC50 ([4]; read-out: pIC50 (converted)): 3.16 µM
IC50 ([5]; read-out: IC50): 5 µM
IC50 ([5]; read-out: pIC50 (converted)): 3.98 µM
inhibition [6]: > 30%
inhibition [7]: > 30%

C[C@@H](C(=O)O)[C@H]1CSC(N)=N1 (relative stereo)
Ki [1]: 1.6 µM
Rmax (Homo sapiens): 96%
EC50 [2]: Not Active
pEC50 [2]: inactive
Rmax [3]: inactive
IC50 ([4]; read-out: IC50): > 100 µM
IC50 ([5]; read-out: IC50): > 100 µM
inhibition [6]: > 30%
inhibition [7]: > 30%

CC(C(=O)O)C1CSC(N)=N1 (stereo in doubt; l-10b)
Ki [1]: 1.3 µM
pKi [1]: 5.91
EC50 [2]: Not Active
IC50 ([4]; read-out: IC50): > 100 µM
IC50 ([5]; read-out: IC50): > 100 µM

O=C(O)C[C@H]1CCNC1
Ki [1]: 0.21 µM
Rmax (Homo sapiens): 102%
Rmax [3]: 94%
IC50 ([4]; read-out: IC50): 3.6 µM
IC50 ([4]; read-out: pIC50 (converted)): 2.51 µM
IC50 ([5]; read-out: IC50): 9.9 µM
IC50 ([5]; read-out: pIC50 (converted)): 7.94 µM
inhibition [6]: > 30%
inhibition [7]: > 30%

NC1=NC(CC(=O)O)CN1 (stereo not drawn)
Ki [1]: 0.45 µM
pKi [1]: 6.37
Rmax (Homo sapiens): 105%
Rmax [3]: 81%
IC50 ([4]; read-out: IC50): 96.9 µM
IC50 ([5]; read-out: IC50): 3 µM
inhibition [6]: > 30%
inhibition [7]: > 30%

C[C@H]1SC(N)=N[C@@H]1CC(=O)O (relative stereo)
Ki [1]: 12 µM
pKi [1]: 4.96
Rmax (Homo sapiens): inactive
EC50 [2]: Not Active
pEC50 [2]: inactive
Rmax [3]: inactive
IC50 ([4]; read-out: IC50): > 100 µM
IC50 ([5]; read-out: IC50): > 100 µM
inhibition [6]: > 30%
inhibition [7]: > 30%

O=C(O)CC1CNC=N1 (stereo not drawn)
Ki [1]: 0.09 µM
Rmax (Homo sapiens): 91%
Rmax [3]: 74%
IC50 ([4]; read-out: IC50): 71.4 µM
IC50 ([5]; read-out: IC50): 7.3 µM
inhibition [6]: > 30%
inhibition [7]: > 30%

NC1=NC(CC(=O)O)CS1 (stereo not drawn)
Ki [1]: 0.11 µM
Rmax (Homo sapiens): 95%
Rmax [3]: 93%
IC50 ([4]; read-out: IC50): 179 µM
IC50 ([4]; read-out: pIC50 (converted)): 158 µM
IC50 ([5]; read-out: IC50): 47.4 µM
inhibition [6]: > 30%
inhibition [7]: > 30%

CC(C(=O)O)C1CSC(N)=N1 (stereo in doubt; l-10a)
Ki [1]: 0.33 µM
IC50 ([4]; read-out: IC50): > 100 µM
IC50 ([5]; read-out: IC50): > 100 µM

C[C@@H](C(=O)O)[C@@H]1CSC(N)=N1 (relative stereo)
Ki [1]: 0.29 µM
Rmax (Homo sapiens): 19%
EC50 [2]: Not Active
pEC50 [2]: inactive
Rmax [3]: inactive
IC50 ([4]; read-out: IC50): > 100 µM
IC50 ([5]; read-out: IC50): > 100 µM
inhibition [6]: > 30%
inhibition [7]: > 30%

C[C@@H]1SC(N)=N[C@@H]1CC(=O)O (relative stereo)
Ki [1]: 5.5 µM
Rmax (Homo sapiens): 76%
EC50 [2]: Not Active
pEC50 [2]: inactive
Rmax [3]: inactive
IC50 ([4]; read-out: IC50): > 100 µM
IC50 ([5]; read-out: IC50): > 100 µM
inhibition [6]: > 30%
inhibition [7]: > 30%
